Measurements from US4245106A, “Process for the preparation of 1-alkyl-3-aryl-4-pyrazolecarboxylates” (Monsanto Company, priority 1979, dated 1981).

Legend:
Type in all cases: in vivo
Barnyard grass [1] = assay: pre-emergent herbicidal activity test
Protocol: (§1) Table II summarizes results of tests conducted to determine the pre-emergent as well as the post-emergent herbicidal activity of the compounds. The pre-emergent test was conducted as follows:
(§2) A good grade of top soil was placed in aluminum pans and compacted to a depth of three-eighths to one-half inch from the top of the pan. On the top of the soil was placed a predetermined number of seeds or vegetative propagules of various plant species. The soil required to level fill the pans after seeding or adding vegetative propagules was weighed into a pan. A known amount of the active ingredient applied in a solvent or as a wettable powder and the soil were thoroughly mixed, and used as a cover layer for prepared pans. After treatment the pans were moved into a greenhouse bench where they were watered from below as needed to give adequate moisture for germination and growth.
(§3) A herbicial rating code was used to signify the extent of phytotoxicity of each species. The rating are defined as follows: […]

Bromus tectorum [2] = assay: pre-emergent herbicidal activity test
Protocol: as §1, §2, §3

Canada Thistle [3] = assay: pre-emergent herbicidal activity test
Protocol: as §1, §2, §3

Cocklebur [4] = assay: pre-emergent herbicidal activity test
Protocol: as §1, §2, §3

Johnsongrass [5] = assay: pre-emergent herbicidal activity test
Protocol: as §1, §2, §3

Lambsquarter [6] = assay: pre-emergent herbicidal activity test
Protocol: as §1, §2, §3

Morningglory [7] = assay: pre-emergent herbicidal activity test
Protocol: as §1, §2, §3

Nutsedge [8] = assay: pre-emergent herbicidal activity test
Protocol: as §1, §2, §3

Quackgrass [9] = assay: pre-emergent herbicidal activity test
Protocol: as §1, §2, §3

Smartweed [10] = assay: pre-emergent herbicidal activity test
Protocol: as §1, §2, §3

Velvetleaf [11] = assay: pre-emergent herbicidal activity test
Protocol: as §1, §2, §3

Barnyard grass [12] = assay: post-emergent herbicidal activity test
Protocol: (§4) The post-emergent tests were conducted as follows. The active ingredients are applied in spray form to two or three-week old specimens of various plant species. The spray, a solution or wettable powder suspension containing the appropriate rate of active ingredient to give the desired test rate and a surfactant, is applied to the plants. The treated plants are placed in a greenhouse and unless otherwise noted approximately four weeks later the effects are observed and recorded.

Bromus tectorum [13] = assay: post-emergent herbicidal activity test
Protocol: as §4

Canada Thistle [14] = assay: post-emergent herbicidal activity test
Protocol: as §4

Cocklebur [15] = assay: post-emergent herbicidal activity test
Protocol: as §4

Johnsongrass [16] = assay: post-emergent herbicidal activity test
Protocol: as §4

Lambsquarter [17] = assay: post-emergent herbicidal activity test
Protocol: as §4

Morningglory [18] = assay: post-emergent herbicidal activity test
Protocol: as §4

Nutsedge [19] = assay: post-emergent herbicidal activity test
Protocol: as §4

Quackgrass [20] = assay: post-emergent herbicidal activity test
Protocol: as §4

Smartweed [21] = assay: post-emergent herbicidal activity test
Protocol: as §4

Velvetleaf [22] = assay: post-emergent herbicidal activity test
Protocol: as §4

[23] = *11.2 Kg/Ha, observed approximately 14 days after treatment
[24] = 11.2 Kg/Ha, approximately 28 days after seeding and treating
[25] = 11.2 Kg/Ha, approximately four weeks later
Further: ranges in brackets are in %.

CCSCCOC(=O)c1cn(C)nc1-c1cccc(C(F)(F)F)c1 [Example 23]
0 (0-24): Pre-Emergent herbicidal rating, A Canada Thistle (Canada Thistle [3]; [23]) | Pre-Emergent herbicidal rating, B Cocklebur (Cocklebur [4]; [23]) | Pre-Emergent herbicidal rating, I Johnsongrass (Johnsongrass [5]; [23]) | Pre-Emergent herbicidal rating, G Nutsedge (Nutsedge [8]; [23]) | Pre-Emergent herbicidal rating, H Quackgrass (Quackgrass [9]; [23]) | Post-Emergent herbicidal rating, J Bromus tectorum (Bromus tectorum [13]; [23]) | Post-Emergent herbicidal rating, I Johnsongrass (Johnsongrass [16]; [23]) | Post-Emergent herbicidal rating, G Nutsedge (Nutsedge [19]; [23])
2 (50-74): Post-Emergent herbicidal rating, E Lambsquarter (Lambsquarter [17]; [23])
3 (75-100): Pre-Emergent herbicidal rating, E Lambsquarter (Lambsquarter [6]; [23])
1 (25-49): Pre-Emergent herbicidal rating, K Barnyard grass (Barnyard grass [1]; [23]) | Pre-Emergent herbicidal rating, J Bromus tectorum (Bromus tectorum [2]; [23]) | Pre-Emergent herbicidal rating, D Morningglory (Morningglory [7]; [23]) | Pre-Emergent herbicidal rating, F Smartweed (Smartweed [10]; [23]) | Pre-Emergent herbicidal rating, C Velvetleaf (Velvetleaf [11]; [23]) | Post-Emergent herbicidal rating, K Barnyard grass (Barnyard grass [12]; [23]) | Post-Emergent herbicidal rating, A Canada Thistle (Canada Thistle [14]; [23]) | Post-Emergent herbicidal rating, B Cocklebur (Cocklebur [15]; [23]) | Post-Emergent herbicidal rating, D Morningglory (Morningglory [18]; [23]) | Post-Emergent herbicidal rating, H Quackgrass (Quackgrass [20]; [23]) | Post-Emergent herbicidal rating, F Smartweed (Smartweed [21]; [23]) | Post-Emergent herbicidal rating, C Velvetleaf (Velvetleaf [22]; [23])

CCOC(=O)c1cn(C)nc1-c1ccc(C(F)(F)F)cc1 [Example 17]
1 (25-49): Pre-Emergent herbicidal rating, J Bromus tectorum (Bromus tectorum [2]; [24]) | Pre-Emergent herbicidal rating, G Nutsedge (Nutsedge [8]; [24]) | Post-Emergent herbicidal rating, A Canada Thistle (Canada Thistle [14]; [25])
2 (50-74): Pre-Emergent herbicidal rating, K Barnyard grass (Barnyard grass [1]; [24]) | Pre-Emergent herbicidal rating, F Smartweed (Smartweed [10]; [24])
0 (0-24): Pre-Emergent herbicidal rating, A Canada Thistle (Canada Thistle [3]; [24]) | Pre-Emergent herbicidal rating, B Cocklebur (Cocklebur [4]; [24]) | Pre-Emergent herbicidal rating, I Johnsongrass (Johnsongrass [5]; [24]) | Pre-Emergent herbicidal rating, D Morningglory (Morningglory [7]; [24]) | Pre-Emergent herbicidal rating, H Quackgrass (Quackgrass [9]; [24]) | Pre-Emergent herbicidal rating, C Velvetleaf (Velvetleaf [11]; [24]) | Post-Emergent herbicidal rating, K Barnyard grass (Barnyard grass [12]; [25]) | Post-Emergent herbicidal rating, J Bromus tectorum (Bromus tectorum [13]; [25]) | Post-Emergent herbicidal rating, B Cocklebur (Cocklebur [15]; [25]) | Post-Emergent herbicidal rating, I Johnsongrass (Johnsongrass [16]; [25]) | Post-Emergent herbicidal rating, E Lambsquarter (Lambsquarter [17]; [25]) | Post-Emergent herbicidal rating, D Morningglory (Morningglory [18]; [25]) | Post-Emergent herbicidal rating, G Nutsedge (Nutsedge [19]; [25]) | Post-Emergent herbicidal rating, H Quackgrass (Quackgrass [20]; [25]) | Post-Emergent herbicidal rating, F Smartweed (Smartweed [21]; [25]) | Post-Emergent herbicidal rating, C Velvetleaf (Velvetleaf [22]; [25])
3 (75-100): Pre-Emergent herbicidal rating, E Lambsquarter (Lambsquarter [6]; [24])
